Reference: PubChem BioAssay AID256 (DTP/NCI, 2004)
Where “and” joins values, the source holds several entries; their conditions need not be identical. Equal entries are not always repeated. Toxic doses and inconclusive results are not listed.

Tested on: CD2F1 mice, L1210 leukemia ip, survival T/C
Assay: NCI In Vivo Anticancer Drug Screen. Data for tumor model L1210 Leukemia (intraperitoneal) in CD2F1 (CDF1) mice
Settings: higher = longer survival
Outline: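 Ratio T/C, where T is the treated-group value and C the vehicle-dosed control value, from mice implanted with a transplantable tumor.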

[1] = endpoint: mean survival time, dose: 50.0 mg/kg/injection, schedule: Q01DX009 (ip), vehicle: saline with Tween-80
[2] = endpoint: mean survival time, dose: 100.0 mg/kg/injection, schedule: Q01DX009 (ip), vehicle: saline with Tween-80
[3] = endpoint: mean survival time, dose: 200.0 mg/kg/injection, schedule: Q01DX009 (ip), vehicle: saline with Tween-80
[4] = endpoint: mean survival time, dose: 100.0 mg/kg/injection, schedule: Q04DX003 (ip), vehicle: saline with Tween-80
[5] = endpoint: mean survival time, dose: 200.0 mg/kg/injection, schedule: Q04DX003 (ip), vehicle: saline with Tween-80
[6] = endpoint: mean survival time, dose: 400.0 mg/kg/injection, schedule: Q04DX003 (ip), vehicle: saline with Tween-80

Q: Which T/C (endpoint: mean survival time, dose: 6.25 mg/kg/injection, schedule: Q01DX009 (ip), vehicle: acetone) does the source give for CCCCCC(CN(C)C)C(=O)/C=C/c1ccc(Cl)c(Cl)c1 (stereo not drawn) here?
A: 92 % of control

Q: What about the T/C (endpoint: mean survival time, dose: 12.5 mg/kg/injection, schedule: Q01DX009 (ip), vehicle: acetone) of the same compound?
A: 94 % of control

Q: What about the T/C (endpoint: mean survival time, dose: 25.0 mg/kg/injection, schedule: Q01DX009 (ip), vehicle: acetone) of the same compound?
A: 97 % of control

Q: Which T/C (endpoint: mean survival time, dose: 50.0 mg/kg/injection, schedule: Q01DX001 (ip), vehicle: saline with Tween-80) does the source give for O=C(COc1ccccc1)NCc1ccc([N+](=O)[O-])cc1 here?
A: 96 % of control

Q: And the T/C (endpoint: mean survival time, dose: 100.0 mg/kg/injection, schedule: Q01DX001 (ip), vehicle: saline with Tween-80)?
A: 96 % of control

Q: And the T/C (endpoint: mean survival time, dose: 200.0 mg/kg/injection, schedule: Q01DX001 (ip), vehicle: saline with Tween-80)?
A: 91 % of control

Q: With Cc1nc2cc(Cl)cc([N+](=O)[O-])c2nc1C as the compound, how does the T/C (endpoint: mean survival time, dose: 100.0 mg/kg/injection, schedule: Q01DX001 (ip), vehicle: other) read?
A: 103 % of control

Q: And the T/C (endpoint: mean survival time, dose: 200.0 mg/kg/injection, schedule: Q01DX001 (ip), vehicle: other)?
A: 97 % of control

Q: What about the T/C (endpoint: mean survival time, dose: 400.0 mg/kg/injection, schedule: Q01DX001 (ip), vehicle: other) of the same compound?
A: 97 % of control

Q: Cc1ccc(NC(=O)OCCOc2ccc(-c3ccccc3)cc2)cc1[N+](=O)[O-] was tested. Which T/C [1] did it give?
A: 98 % of control

Q: And the T/C [2]?
A: 98 % of control

Q: What about the T/C [3] of the same compound?
A: 94 % of control

Q: How did the T/C [2] turn out when CC(C)N(C(C)C)S(=O)(=O)c1ccccc1C(O)(c1ccccc1)c1ccccc1 was run?
A: 92 % of control

Q: And the T/C [4]?
A: 94 % of control

Q: What about the T/C [5] of the same compound?
A: 96 % of control

Q: What about the T/C [6] of the same compound?
A: 89 % of control

Q: Which results are given for CCCC/C=C\C(=O)OCC?
A: T/C [1]: 104 % of control; T/C [2]: 101 % of control; T/C [3]: 104 % of control

Q: [N-]=[N+]=Nc1ccccc1C(=O)NCc1cnc(N)nc1N was tested. Which T/C [4] did it give?
A: 95 % of control

Q: What about the T/C [5] of the same compound?
A: 95 % of control

Q: COc1ccc(NC(=O)CC(C)(C)C(=O)O)cc1 was tested. Which T/C [4] did it give?
A: 101 % of control

Q: And the T/C [5]?
A: 100 % of control

Q: What about the T/C [6] of the same compound?
A: 103 % of control

Q: What does the source list for O=NNc1cccc(NN=O)n1?
A: T/C (endpoint: median survival time, dose: 6.25 mg/kg/injection, schedule: Q01DX005 (ip), vehicle: saline): 115 % of control and 108 % of control; T/C (endpoint: median survival time, dose: 12.5 mg/kg/injection, schedule: Q01DX005 (ip), vehicle: saline): 121 % of control; T/C (endpoint: median survival time, dose: 29.0 mg/kg/injection, schedule: Q01DX005 (ip), vehicle: saline): 153 % of control; T/C (endpoint: median survival time, dose: 44.0 mg/kg/injection, schedule: Q01DX005 (ip), vehicle: saline): 166 % of control; T/C (endpoint: median survival time, dose: 100.0 mg/kg/injection, schedule: Q01DX005 (ip), vehicle: saline): 122 % of control and 91 % of control and 98 % of control

Q: How did the T/C [4] turn out when N#CN(Cc1ccc(Cl)cc1Cl)C(=O)OCOc1ccc(Cl)cc1 was run?
A: 88 % of control

Q: And the T/C [5]?
A: 89 % of control

Q: What about the T/C [6] of the same compound?
A: 96 % of control

Q: For Cc1ccccc1S(=O)(=O)F, which T/C [1] is on record?
A: 103 % of control

Q: And the T/C [2]?
A: 107 % of control

Q: And the T/C [4]?
A: 92 % of control

Q: What about the T/C [5] of the same compound?
A: 89 % of control

Q: Which results are given for Cc1ccccc1NC(=O)c1cc2ccccc2cc1O?
A: T/C [2]: 91 % of control; T/C [4]: 102 % of control; T/C [3]: 94 % of control; T/C [5]: 89 % of control; T/C (endpoint: mean survival time, dose: 400.0 mg/kg/injection, schedule: Q01DX009 (ip), vehicle: saline with Tween-80): 94 % of control; T/C [6]: 91 % of control

Q: With COC(=O)C(CC(C)C)NC(=O)c1ccccc1 (stereo not drawn) as the compound, how does the T/C [4] read?
A: 98 % of control

Q: What about the T/C [5] of the same compound?
A: 97 % of control

Q: And the T/C [6]?
A: 95 % of control

Q: For C1=CC2C=CC12 (stereo not drawn), which T/C [1] is on record?
A: 105 % of control

Q: What about the T/C [2] of the same compound?
A: 108 % of control

Q: And the T/C [4]?
A: 95 % of control

Q: And the T/C [5]?
A: 104 % of control

Q: With CCCCCCCCCCCCN1C(C)=CS/C1=C\C=C\c1scc(C)[n+]1CCCCCCCCCCCC as the compound, how does the T/C (endpoint: mean survival time, dose: 0.78 mg/kg/injection, schedule: Q01DX009 (ip), vehicle: saline with Tween-80) read?
A: 123 % of control

Q: How did the T/C [4] turn out when S=C(S)c1[nH]c(=S)[nH]c(=S)c1Cl was run?
A: 96 % of control

Q: What about the T/C [5] of the same compound?
A: 101 % of control

Q: And the T/C [6]?
A: 87 % of control
